Measured values as given in paper PMC2151668 (The Journal of General Physiology, 2007).
Like-named read-outs stand apart in the source and are kept apart here. Peptide text beside a SMILES is read from it.

Columns and labels:
[1] = for F/F0 max: 1:1 POPG:POPC LUVs; for F/F0 max / λmax: HEB, 100 mM K+
Kv2.1 channel = target: T1, Kv2.1 channel (Rattus norvegicus, UniProt P15387, A366D/I383M/K360G/K386V/S367A/T359S/Y384T); test: Two-electrode voltage-clamp recording of Kv2.1 expressed in oocytes; type: cell-based
T1 sequence (P15387 1-857 T359S/K360G/A366D/S367A/I383M/Y384T/K386V): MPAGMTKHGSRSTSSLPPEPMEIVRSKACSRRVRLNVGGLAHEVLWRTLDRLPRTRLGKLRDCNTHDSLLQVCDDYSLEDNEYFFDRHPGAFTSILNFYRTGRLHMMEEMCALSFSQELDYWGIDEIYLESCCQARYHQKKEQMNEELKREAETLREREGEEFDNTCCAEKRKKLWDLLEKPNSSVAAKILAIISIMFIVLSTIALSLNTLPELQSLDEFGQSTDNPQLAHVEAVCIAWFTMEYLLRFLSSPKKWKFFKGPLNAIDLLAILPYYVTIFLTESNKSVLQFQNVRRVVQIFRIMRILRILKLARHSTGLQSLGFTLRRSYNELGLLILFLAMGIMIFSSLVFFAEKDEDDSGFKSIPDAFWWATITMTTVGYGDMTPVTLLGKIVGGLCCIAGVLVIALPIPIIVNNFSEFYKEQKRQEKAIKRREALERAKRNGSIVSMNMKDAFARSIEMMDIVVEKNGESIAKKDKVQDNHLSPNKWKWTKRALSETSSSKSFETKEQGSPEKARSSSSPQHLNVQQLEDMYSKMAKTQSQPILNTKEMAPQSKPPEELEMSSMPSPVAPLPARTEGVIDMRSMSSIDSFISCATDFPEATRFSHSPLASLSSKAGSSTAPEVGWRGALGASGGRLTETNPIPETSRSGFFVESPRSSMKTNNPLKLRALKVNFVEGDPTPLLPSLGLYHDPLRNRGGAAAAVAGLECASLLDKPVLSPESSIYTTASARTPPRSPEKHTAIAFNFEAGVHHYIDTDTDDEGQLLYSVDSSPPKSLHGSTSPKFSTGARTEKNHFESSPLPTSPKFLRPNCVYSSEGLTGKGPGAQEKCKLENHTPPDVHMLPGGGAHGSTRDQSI

[2] = Acrylamide quenching of W30 tryptophan fluorescence; type: physicochemical
[3] = toxin:lipid 2 μM:0.9 mM, HEB pH 7, n = 3

CC(C)C[C@@H]1NC(=O)[C@H](Cc2c[nH]cn2)NC(=O)[C@H](CCCCN)NC(=O)[C@@H]2CSSC[C@H](NC(=O)[C@@H](N)CCC(=O)O)C(=O)N[C@@H](CCCNC(=N)N)C(=O)N[C@@H](Cc3ccc(O)cc3)C(=O)N[C@@H](CC(C)C)C(=O)N[C@@H](Cc3ccccc3)C(=O)NCC(=O)NCC(=O)N[C@H]3CSSC[C@H](NC(=O)CNC1=O)C(=O)N[C@@H](CCCCN)C(=O)N[C@@H](Cc1ccccc1)C(=O)N[C@@H](CCCNC(=N)N)C(=O)N[C@@H](CC(=O)O)C(=O)N[C@@H](CCCCN)C(=O)N[C@@H](Cc1ccc(O)cc1)C(=O)N[C@H](C(=O)N[C@@H](C)C(=O)N[C@@H](Cc1c[nH]c4ccccc14)C(=O)N[C@@H](CC(=O)O)C(=O)N[C@@H](Cc1ccccc1)C(=O)N[C@H](C(=O)N[C@@H](Cc1ccccc1)C(=O)N[C@@H](CO)C(=O)O)[C@@H](C)O)CSSC[C@H](NC(=O)[C@H](CC(=O)O)NC(=O)[C@H](CO)NC(=O)[C@H]([C@@H](C)O)NC(=O)[C@H]([C@@H](C)O)NC(=O)[C@H](CCCCN)NC3=O)C(=O)N2 [Hanatoxin] (HELM PEPTIDE1{E.C.R.Y.L.F.G.G.C.K.T.T.S.D.C.C.K.H.L.G.C.K.F.R.D.K.Y.C.A.W.D.F.T.F.S}$PEPTIDE1,PEPTIDE1,2:R3-16:R3|PEPTIDE1,PEPTIDE1,9:R3-21:R3|PEPTIDE1,PEPTIDE1,15:R3-28:R3$$$V2.0; N-terminus and C-terminus assumed)
F/F0 max ([1]; 1 mM free Ca2+, n = 3): 2.1 ± 0.1
F/F0 max ([1]; pH 7, n = 3): 2.0 ± 0.02
λmax ([1]; +POPG:POPC vesicles, 1 mM free Ca2+): 350.0 nm
λmax ([1]; +POPG:POPC vesicles, pH 7): 344.3 nm
Kx ([1]; as printed in legend, anionic vesicles, HEB with 100 mM KCl, n = 3): (5.3 ± 0.03) × 10^5
λmax ([1]; toxin in solution without lipid, 1 mM free Ca2+): 353.7 nm
blue shift in fluorescence emission spectrum ([1]; upon addition of 1:1 POPC:POPG vesicles (2.4 mM), HEB pH 7): 10.9 nm
effect on Kv2.1 channel opening (Kv2.1 channel; 4 μM hanatoxin in external solution, oocytes, n = 3): pronounced inhibition of opening at negative voltages
time for channel activity to recover to control values after toxin removal (Kv2.1 channel; control (untreated) oocytes, 500 nM hanatoxin): ~1,000 s
Stern-Volmer constant (KSV), Solution ([2]; toxin 2 μM in solution, no lipid vesicles, n = 3): 48 ± 3 M⁻¹
Stern-Volmer constant (KSV), POPC, HEB [2, 3]: 10 ± 0.5 M⁻¹
Stern-Volmer constant (KSV), POPC:POPG, HEB [2, 3]: 7 ± 0.1 M⁻¹
Stern-Volmer constant (KSV), POPC:POPG, PB ([2]; toxin:lipid 2 μM:0.9 mM, PB (10 mM HEPES, 100 mM KCl, 1 mM MgCl2, 0.3 mM CaCl2, pH 7.6), n = 3): 18 ± 0.2 M⁻¹
Stern-Volmer constant (KSV), POPC, PB ([2]; toxin:lipid 2 μM:0.9 mM, PB pH 7.6, n = 3): 23 ± 0.7 M⁻¹
